We go through 4 compounds from article PMC11191402, “High-Affinity NIR-Fluorescent Inhibitors for Tumor Imaging via Carbonic Anhydrase IX” (Bioconjugate Chemistry, 2024).

Each structure is given as a SMILES string.

In one data set the target is T1, human recombinant CAXIV (Homo sapiens, UniProt Q9ULX7).
T1 construct: Most isozymes were truncated, and only the catalytic domains of the proteins were produced; made in house; host or cells: bacterial expression system
Kind of data set: Fluorescence-based thermal shift assay (FTSA), CAXIV. It counts as binding. To be noted: 37 °C, pH 7.0. How it is done:
(§1) The binding affinities of the four NIR-fluorescent compounds to 12 catalytically active recombinant CA isozymes were determined by the fluorescence-based thermal shift assay (FTSA), and the dissociation constants (Kd’s) at physiological pH (pH 7.0) and 37 °C are listed in Table 1.
(§2) All 12 catalytically active human CA isozymes were prepared recombinantly as previously described. Most isozymes were truncated, and only the catalytic domains of the proteins were produced.[9],[56] All isozymes were expressed in a bacterial expression system except that CAIX was expressed in mammalian cells. The proteins were chromatographically purified via immobilized metal affinity chromatography, ion-exchange, or p-aminomethylbenzenesulfonamide-sepharose affinity chromatography. Protein purity was confirmed by SDS-PAGE, and MW was confirmed by mass spectrometry with 1 Da precision, as predicted from theoretical protein sequence.
(§3) The fluorescence-based thermal shift assay (FTSA) was used to determine the binding affinity of compounds for all catalytically active CA isozymes. The assay is based on the thermal stabilization of proteins by bound ligands and distinguishes itself in its ability to determine extremely high affinity (picomolar Kd) of compound binding to CAIX. The experiments were performed with a QIAGEN Rotor-Gene Q instrument using either the blue channel (365 ± 20 nm excitation and 460 ± 15 nm emission detection) or the green channel (470 ± 10 nm excitation and 510 ± 5 nm detection). The protein solution, in the absence and presence of various compound concentrations ranging from 3 to 200 μM (2× dilutions), was heated from 25 to 99 °C (heating rate, 1 °C/min). The CA isozyme melting temperature Tm was determined by following the fluorescence of 8-anilino-1-naphthalenesulfonate (ANS) or Glomelt dye. The samples consisted of 5 μM protein (or 10 μM CAIV), different concentrations of the tested compound, and 50 μM ANS or 200× diluted Glomelt in 50 mM sodium phosphate buffer (at pH 7.0) containing 100 mM sodium chloride and 2–4% (v/v) dimethyl sulfoxide. To obtain the dissociation constant (at 37 °C), data analysis was performed, and the curves were fit using the Thermott Web server.[57]

Data set [1] in a line: Absorption, emission and fluorescence quantum yield measurement. It is filed as physicochemical. To be noted: for λabs: absorption spectrum; for λem (fluorescence maximum): emission spectrum. How it is done:
Figure S1. Absorption and emission spectra of NIR inhibitors. GZ22-1 λ abs= 783 nm, λ em= 807
Norm. absorption (arb. units)
Norm. photoluminescence (arb. units)
Norm absorption (arb. units) […]
Table S1. Fluorescence quantum yield comparison of NIR-fluorescent compounds. Compound
concentration was 100 nM in PBS. L a-c – excitation radiation integrals, P b-c – fluorescence
Nr. Compound Excitation La Lb Lc A(1) Pb Pc QY(2)
(1)Sample absorbance . (2)Fluorescence quantum yield: .LPc―(1―A)Pb […]

A further data set has as its target T2, human recombinant CAVI (Homo sapiens, UniProt P23280).
T2 construct: Most isozymes were truncated, and only the catalytic domains of the proteins were produced; made in house; host or cells: bacterial expression system
Kind of data set: Fluorescence-based thermal shift assay (FTSA), CAVI. It counts as binding. To be noted: 37 °C, pH 7.0. How it is done: as §1, §2, §3

The target in data set [2] is T3, cell-expressed CAIX (HeLa cells grown under hypoxia) (Homo sapiens, UniProt Q16790).
T3 construct: The cells were grown under hypoxia and not transfected; endogenous in cells; host or cells: HeLa cells, 3 days under hypoxia, not transfected
The experiment in a line: Competition assay with fluorescein-labeled GZ19-32 in live hypoxia-grown HeLa cells. It counts as binding. The note with it: 10 nM GZ19-32, Pt 2 nM CAIX. The method, then: Hypoxia-grown HeLa cell culture expressed approximately 2 nM CAIX, which was quantified by fluorescein-labeled GZ19-32 added at a constant concentration of 10 nM throughout the assay. The four NIR-fluorescent compounds were dosed and competed with the GZ19-32 compound in a dose-dependent manner. At high concentrations, all four compounds fully outcompeted the fluorescein-bearing compound yielding nice competition curves (Figure 2B). Each curve was fit using the total protein CAIX (Pt) value of 2 nM, and the Kd of GZ19-32 was 200 pM. The dissociation constants for each NIR-fluorescent compound were 4 nM for GZ21-19, 6 nM for GZ22-1, 1.5 nM for GZ22-4, and 15 nM for AZ21-6. Thus, compound affinities were similar but not identical, despite having identical headgroups. […] The affinity of fluorescein-bearing GZ19-32 was the highest of all, around 200 pM.
For the competition assay, live cells were seeded in 12-well plates and incubated for 3 days under hypoxia. 200 μL of serially diluted NIR-fluorescent compound (12 2-fold dilution steps) in the PBS medium, starting from 5120 nM (5120, 2560, 1280,..., 0 nM), was mixed with 200 μL of 20 nM GZ19-32 solution (PBS). After the removal of growth medium, 200 μL obtained solutions were applied to the cells grown in 12-well culture plates. Plates were incubated in the CO2 incubator at normoxia for 20 min. The solution was removed, and cells were washed 3 times for 1–2 min with 400 μL of PBS. Then, 180 μL of TrypLe express enzyme (Thermo Fisher) was added to each well and incubated in the normoxia chamber for 10 min. Then, 20 μL of Defined Trypsin Inhibitor solution (Thermo Fisher) was added and cells were resuspended by pipetting. 150 μL of the suspension from each well was transferred to Thermo Scientific Nunc MicroWell 96-Well Optical-Bottom Plates for fluorescence and absorbance measurements. 485 nm excitation and 520 nm emission wavelengths were used to measure fluorescence on a Synergy HTX, BioTek plate reader. 650 nm wavelength was used for absorbance measurements.

T2 sequence (P23280 21-278 limits assumed): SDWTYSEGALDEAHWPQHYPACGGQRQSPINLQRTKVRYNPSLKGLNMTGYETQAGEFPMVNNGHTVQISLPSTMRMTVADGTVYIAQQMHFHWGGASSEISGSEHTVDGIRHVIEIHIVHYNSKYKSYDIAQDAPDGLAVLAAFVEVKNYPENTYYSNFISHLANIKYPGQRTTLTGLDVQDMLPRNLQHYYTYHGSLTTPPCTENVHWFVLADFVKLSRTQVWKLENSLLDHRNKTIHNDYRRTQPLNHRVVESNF
T1 sequence (Q9ULX7 20-278 limits assumed): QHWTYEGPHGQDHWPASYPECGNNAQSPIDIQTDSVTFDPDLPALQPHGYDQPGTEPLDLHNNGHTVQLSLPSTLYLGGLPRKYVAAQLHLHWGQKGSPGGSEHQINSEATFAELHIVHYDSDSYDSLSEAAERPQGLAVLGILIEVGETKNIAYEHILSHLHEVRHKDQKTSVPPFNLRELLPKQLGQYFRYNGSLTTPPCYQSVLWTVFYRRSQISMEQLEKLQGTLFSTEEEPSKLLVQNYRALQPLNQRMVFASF

For `CC1(C)C(/C=C/C2=C(Oc3ccc(CCC(=O)NCCOCCOCCOCCOCCOCCOCCOCCOCCOCCOCCOCCNC(=O)CCS(=O)(=O)c4c(F)c(F)c(S(N)(=O)=O)c(F)c4NC4CCCCCCC4)cc3)C(=C/C=C3\N(CCCCS(=O)(=O)[O-])c4ccccc4C3(C)C)/CCC2)=[N+](CCCCS(=O)(=O)[O-])c2ccccc21.[Na+]` [GZ22-4, Sodium 4-((Z)-2-((E)-2-(2-(4-(43-((2-(Cyclooctylamino)-3,5,6-trifluoro-4-sulfamoylphenyl)sulfonyl)-3,41-dioxo-7,10,13,16,19,22,25,28,31,34,37-undecaoxa-4,40-diazatritetracontyl)phenoxy)-3-((E)-2-(3,3-dimethyl-1-(4-sulfonatobutyl)-3H-indol-1-ium-2-yl)vinyl)cyclohex-2-en-1-ylidene)ethylidene)-3,3-dimethylindolin-1-yl)butane-1-sulfonate], the figures for the dissociation constant Kd (on human recombinant CAXIV; on human recombinant CAVI; in data set [2]) were 90 nM, 500 nM and 1.5 nM, respectively. Further, the λabs in data set [1] came to 783 nm. Further, the “λem (fluorescence maximum)” value in data set [1] is on record as 807 nm.

As to `CC1(C)C(/C=C/C2=C(NCCCOCCOCCOCCCNC(=O)CCC(=O)NCCS(=O)(=O)c3c(F)c(F)c(S(N)(=O)=O)c(F)c3NC3CCCCCCC3)C(=C/C=C3\N(CCCCS(=O)(=O)[O-])c4ccccc4C3(C)C)/CCC2)=[N+](CCCCS(=O)(=O)[O-])c2ccccc21.[Na+]` [AZ21-6, Sodium 4-((Z)-2-((E)-2-(2-((1-((2-(Cyclooctylamino)-3,5,6-trifluoro-4-sulfamoylphenyl)sulfonyl)-4,7-dioxo-12,15,18-trioxa-3,8-diazahenicosan-21-yl)amino)-3-((E)-2-(3,3-dimethyl-1-(4-sulfonatobutyl)-3H-indol-1-ium-2-yl)vinyl)cyclohex-2-en-1-ylidene)ethylidene)-3,3-dimethylindolin-1-yl)butane-1-sulfonate], the dissociation constant (Kd) is 100 nM on human recombinant CAXIV, 1000 nM at human recombinant CAVI and 15 nM in data set [2]. The “QY (fluorescence quantum yield)” value in data set [1] (100 nM in PBS, excitation 650nm) was found to be 0.43. This compound also gave a λabs in data set [1] of 637 nm.

With `CC1(C)C(/C=C/C2=C(Oc3ccc(CCC(=O)NCCCOCCOCCOCCCNC(=O)CCS(=O)(=O)c4c(F)c(F)c(S(N)(=O)=O)c(F)c4NC4CCCCCCC4)cc3)C(=C/C=C3\N(CCCCS(=O)(=O)[O-])c4ccccc4C3(C)C)/CCC2)=[N+](CCCCS(=O)(=O)[O-])c2ccccc21.[Na+]` [GZ22-1, Sodium 4-((Z)-2-((E)-2-(2-(4-(21-((2-(Cyclooctylamino)-3,5,6-trifluoro-4-sulfamoylphenyl)sulfonyl)-3,19-dioxo-8,11,14-trioxa-4,18-diazahenicosyl)phenoxy)-3-((E)-2-(3,3-dimethyl-1-(4-sulfonatobutyl)-3H-indol-1-ium-2-yl)vinyl)cyclohex-2-en-1-ylidene)ethylidene)-3,3-dimethylindolin-1-yl)butane-1-sulfonate], the Kd is 100 nM at human recombinant CAXIV, 700 nM on human recombinant CAVI and 6 nM in data set [2]. For the same compound, the λabs in data set [1] was 783 nm. In addition, in data set [1], the “λem (fluorescence maximum)” value is listed as 807 nm.

`CC1(C)C(/C=C/C2=C(Oc3cccc(CC(=O)NCCCOCCOCCOCCCNC(=O)CCS(=O)(=O)c4c(F)c(F)c(S(N)(=O)=O)c(F)c4NC4CCCCCCC4)c3)C(=C/C=C3\N(CCCCS(=O)(=O)[O-])c4ccccc4C3(C)C)/CCC2)=[N+](CCCCS(=O)(=O)[O-])c2ccccc21.[Na+]` [GZ21-19, Sodium 4-((Z)-2-((E)-2-(2-(3-(20-((2-(Cyclooctylamino)-3,5,6-trifluoro-4-sulfamoylphenyl)sulfonyl)-2,18-dioxo-7,10,13-trioxa-3,17-diazaicosyl)phenoxy)-3-((E)-2-(3,3-dimethyl-1-(4-sulfonatobutyl)-3H-indol-1-ium-2-yl)vinyl)cyclohex-2-en-1-ylidene)ethylidene)-3,3-dimethylindolin-1-yl)butane-1-sulfonate]: the figures for the Kd (at human recombinant CAXIV; on human recombinant CAVI; in data set [2]) were 100 nM, 700 nM and 4 nM, respectively. The same compound registered a λabs in data set [1] of 783 nm. In addition, the “λem (fluorescence maximum)” value in data set [1] was found to be 805 nm.

Broadly, the Kd is a measure of binding affinity in units of concentration.
